# PMC12517401, “Design, synthesis, and antiproliferative activity of new 2-amino-pyrano[3,2-c]quinoline-3-carbonitriles as potential EGFR, BRAF^V600E, and HER-2 inhibitors” (RSC Advances, 2025)
# Like-named read-outs stand apart in the source and are kept apart here.
# Columns and labels:
# [1] = Cell viability assay (MTT) on MCF-10A normal cell line; type: cell-based; details: human, MCF-10A mammary gland epithelial normal cells, MCF-10A cells, 50 μM of each compound, four days of incubation
# Protocol: The human mammary gland epithelial (MCF-10A) normal cell line was used to examine the viability effects of new derivatives 5a–l using the MTT test.[33,34] Refer to Appendix A for more details.
# The human mammary gland epithelium (MCF-10A) normal cell line was employed to evaluate the viability effects of novel derivatives 5a–l. The cell viability of 5a–l was assessed via the MTT assay following four days of incubation with 50 μM of each compound on MCF-10A cells.[33,34] […]
# 4.2. Biological evaluation
# 4.2.1 Cell Viability assay (MTT assay)
# MTT assay was performed to investigate the effect of the synthesized compounds on mammary epithelial cells (MCF-10A). The cells were propagated in medium consisting of Ham's F-12 medium/ Dulbecco's modified Eagle's medium (DMEM) (1:1) supplemented with 10% foetal calf serum, 2 mM glutamine, insulin (10 μg/mL), hydrocortisone (500 ng/mL) and epidermal growth factor (20 ng/mL). Trypsin ethylenediamine tetra acetic acid (EDTA) was used to passage the cells after every 2-3 days. 96-well flat-bottomed cell culture plates were used to seed the cells at a density of 10^4 cells mL-1. The medium was aspirated from all the wells of culture plates after 24 h followed by the addition of synthesized compounds (in 200 μL medium to yield a final concentration of 0.1% (v/v) dimethyl sulfoxide) into individual wells of the plates. Four wells were designated to a single compound. The plates were allowed to incubate at 37°C for 96 h. Afterwards, the medium was aspirated and 3-[4,5-dimethylthiazol-2-yl]-2,5-diphenyltetrazolium bromide (MTT) (0.4 mg/mL) in medium was added to each well and subsequently incubated for 3 h. The medium was aspirated and 150 μL dimethyl sulfoxide (DMSO) was added to each well. The plates were vortexed followed by the measurement of absorbance at 540 nm on a microplate reader. The results were presented as inhibition (%) of proliferation in contrast to controls comprising 0.1% DMSO. […]
# [2] = tested on: pancreatic cancer (Panc-1); test: Antiproliferative assay, Panc-1; type: cell-based; details: Homo sapiens; Panc-1 pancreatic cancer cell line; read-out: Antiproliferative activity IC50 ± SEM (nM) Panc-1
# Protocol: (§1) 4.2.2. Assay for antiproliferative effect
# (§2) To explore the antiproliferative potential of compounds propidium iodide fluorescence assay was performed using different cell lines such as Panc-1 (pancreas cancer cell line), MCF-7 (breast cancer cell line), HT-29 (colon cancer cell line) and A-549 (epithelial cancer cell line), respectively. To calculate the total nuclear DNA, a fluorescent dye (propidium iodide, PI) is used which can attach to the DNA, thus offering a quick and precise technique. PI cannot pass through the cell membrane and its signal intensity can be considered as directly proportional to quantity of cellular DNA. Cells whose cell membranes are damaged or have changed permeability are counted as dead ones. The assay was performed by seeding the cells of different cell lines at a density of 3000-7500 cells/well (in 200μl medium) in culture plates followed by incubation for 24h at 37 °C in humidified 5%CO2/95% air atmospheric conditions. The medium was removed; the compounds were added to the plates at 10 μM concentrations (in 0.1% DMSO) in triplicates, followed by incubation for 48h. DMSO (0.1%) was used as control. After incubation, medium was removed followed by the addition of PI (25 μl, 50μg/mL in water/medium) to each well of the plates. At -80 °C, the plates were allowed to freeze for 24 h, followed by thawing at 25 °C. A fluorometer (Polar-Star BMG Tech) was used to record the readings at excitation and emission wavelengths of 530 and 620 nm for each well. The percentage cytotoxicity of compounds was calculated using the following formula:
# (§3) Where ATC= Absorbance of treated cells and AC= Absorbance of control. Erlotinib was used as positive control in the assay. […]
# [3] = molecular target: BRAF^V600E (Mus musculus, UniProt P28028, V585E); test: BRAF^V600E inhibitory assay
# BRAF^V600E (Mus musculus, UniProt P28028, V585E), sequence (P28028 whole entry V585E): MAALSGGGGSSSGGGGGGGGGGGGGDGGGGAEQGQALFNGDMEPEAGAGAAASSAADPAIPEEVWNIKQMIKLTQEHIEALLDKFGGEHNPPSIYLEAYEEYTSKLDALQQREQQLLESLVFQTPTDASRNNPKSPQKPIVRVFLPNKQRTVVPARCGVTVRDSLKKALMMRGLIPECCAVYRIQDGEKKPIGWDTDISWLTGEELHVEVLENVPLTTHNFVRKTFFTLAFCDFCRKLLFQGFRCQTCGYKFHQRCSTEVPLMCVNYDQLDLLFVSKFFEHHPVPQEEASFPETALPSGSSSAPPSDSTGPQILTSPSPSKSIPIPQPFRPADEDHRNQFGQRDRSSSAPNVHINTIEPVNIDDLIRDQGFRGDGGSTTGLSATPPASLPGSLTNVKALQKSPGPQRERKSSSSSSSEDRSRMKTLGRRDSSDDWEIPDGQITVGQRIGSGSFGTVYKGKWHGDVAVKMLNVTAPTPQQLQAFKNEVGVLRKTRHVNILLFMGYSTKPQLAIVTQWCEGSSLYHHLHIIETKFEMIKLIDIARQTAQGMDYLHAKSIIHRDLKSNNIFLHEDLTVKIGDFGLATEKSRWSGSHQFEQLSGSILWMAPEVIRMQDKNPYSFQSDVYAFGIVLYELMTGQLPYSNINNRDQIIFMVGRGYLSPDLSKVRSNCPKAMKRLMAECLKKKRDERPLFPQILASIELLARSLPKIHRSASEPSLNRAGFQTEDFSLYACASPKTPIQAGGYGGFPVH
# [4] = tested on: BRAF^V600E; test: BRAF^V600E inhibitory assay; details: ratio of BRAF^V600E IC50 versus erlotinib
# BRAF^V600E, sequence (P28028 whole entry V585E): as above
# [5] = tested on: breast cancer (MCF-7); test: Antiproliferative assay, MCF-7; type: cell-based, human; details: Homo sapiens, MCF7; MCF-7 breast cancer cell line; read-out: Antiproliferative activity IC50 ± SEM (nM) MCF-7
# Protocol: as §1, §2, §3
# [6] = tested on: lung cancer (A-549); test: Antiproliferative assay, A-549; type: cell-based; details: Homo sapiens, A549; A-549 lung cancer cell line; read-out: Antiproliferative activity IC50 ± SEM (nM) A-549
# Protocol: as §1, §2, §3
# (1 picture or pasted object on this page, not shown here)
# [7] = tested on: colon cancer (HT-29); test: Antiproliferative assay, HT-29; type: cell-based; details: Homo sapiens; HT-29 colon cancer cell line; read-out: Antiproliferative activity IC50 ± SEM (nM) HT-29
# Protocol: as §1, §2, §3
# [8] = tested on: four human cancer cell lines (A-549, MCF-7, Panc-1, HT-29); test: Antiproliferative assay, average over four cancer cell lines (GI50); type: cell-based; details: for GI50: GI50 = mean IC50 against the four cancer cell lines
# Protocol: as §1
# To explore the antiproliferative potential of compounds propidium iodide fluorescence assay was performed using different cell lines such as Panc-1 (pancreas cancer cell line), MCF-7 (breast cancer […]
# calculate the total nuclear DNA, a fluorescent dye (propidium iodide, PI) is used which can attach to the DNA, thus offering a quick and precise technique. PI cannot pass through the cell membrane and its signal intensity can be considered as directly proportional to quantity of cellular DNA. Cells whose cell membranes are damaged or have changed permeability are counted as dead ones. The assay was performed by seeding the cells of different cell lines at a density of 3000-7500 cells/well (in 200μl […]
# atmospheric conditions. The medium was removed; the compounds were added to the plates at 10 μM concentrations (in 0.1% DMSO) in triplicates, followed by incubation for 48h. DMSO (0.1%) was used as control. After incubation, medium was removed followed by the addition of PI (25 μl, 50μg/mL in water/medium) to each well of the plates. At -80 °C, the plates were allowed to freeze for 24 h, followed by thawing at 25 °C. A fluorometer (Polar-Star BMG Tech) was used to record the readings at excitation and emission wavelengths of 530 and 620 nm for each well. The percentage cytotoxicity of compounds was calculated using the following formula:
# Where ATC= Absorbance of treated cells and AC= Absorbance of control. […]
# positive control in the assay. […]
# [9] = molecular target: T1, HER-2 (Homo sapiens, UniProt P04626); test: HER-2 inhibitory assay (ADP-Glo kinase assay); type: biochemical; details: read-out: HER-2 inhibition IC50 ± SEM
# T1 construct: purchased Abcam ab60866
# T1 sequence (P04626 23-1255): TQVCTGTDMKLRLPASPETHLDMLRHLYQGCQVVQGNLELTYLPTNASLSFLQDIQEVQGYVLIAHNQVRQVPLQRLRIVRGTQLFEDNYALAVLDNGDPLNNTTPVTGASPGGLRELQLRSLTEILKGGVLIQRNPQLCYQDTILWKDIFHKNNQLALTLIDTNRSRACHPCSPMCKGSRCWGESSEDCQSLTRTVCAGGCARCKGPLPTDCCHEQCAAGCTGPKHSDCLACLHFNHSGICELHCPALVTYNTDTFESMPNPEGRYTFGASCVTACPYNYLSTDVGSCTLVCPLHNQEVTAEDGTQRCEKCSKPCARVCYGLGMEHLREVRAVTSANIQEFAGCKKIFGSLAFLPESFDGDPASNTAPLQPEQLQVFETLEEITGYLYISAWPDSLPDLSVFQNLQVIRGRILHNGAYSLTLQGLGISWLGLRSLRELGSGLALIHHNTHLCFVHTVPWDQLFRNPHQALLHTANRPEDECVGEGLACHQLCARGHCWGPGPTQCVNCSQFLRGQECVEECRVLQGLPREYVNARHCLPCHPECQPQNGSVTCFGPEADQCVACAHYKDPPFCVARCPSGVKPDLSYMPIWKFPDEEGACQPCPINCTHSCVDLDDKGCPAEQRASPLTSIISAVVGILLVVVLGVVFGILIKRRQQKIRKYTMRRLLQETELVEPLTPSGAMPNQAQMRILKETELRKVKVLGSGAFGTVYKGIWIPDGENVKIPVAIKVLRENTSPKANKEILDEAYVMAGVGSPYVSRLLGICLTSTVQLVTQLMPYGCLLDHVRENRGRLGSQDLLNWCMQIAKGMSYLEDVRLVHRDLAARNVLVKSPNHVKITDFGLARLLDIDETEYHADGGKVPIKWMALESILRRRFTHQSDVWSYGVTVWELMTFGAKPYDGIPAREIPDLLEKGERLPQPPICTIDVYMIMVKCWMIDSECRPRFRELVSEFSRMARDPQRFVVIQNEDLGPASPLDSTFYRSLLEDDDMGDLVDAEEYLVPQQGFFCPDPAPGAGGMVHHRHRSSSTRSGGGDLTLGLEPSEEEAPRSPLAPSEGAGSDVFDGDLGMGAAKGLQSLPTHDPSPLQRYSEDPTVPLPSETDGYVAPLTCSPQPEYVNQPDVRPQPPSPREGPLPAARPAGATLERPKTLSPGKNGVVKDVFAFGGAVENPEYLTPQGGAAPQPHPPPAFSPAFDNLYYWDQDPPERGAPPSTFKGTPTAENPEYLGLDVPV
# Protocol: The results are presented as IC50 values. Lapatinib served as the reference medication. Appendix A describes more experimental details.
# Lapatinib functioned as the reference drug. […]
# 4.2.5. HER-2 inhibitory assay
# The ADP-Glo™ Kinase Assay was used for kinase activity detection, related kinases information:
# HER-2 (ab60866, Abcam), with a concentration of 100 ng/mL. Target compounds were dissolved in DMSO to obtain drug solutions with different concentrations, and the compound concentrations in the final reaction system (100 μL) were 1 nM, 20 nM, 40 nM, 80 nM, and 100 nM, respectively. 10μL of the solution containing compounds was transferred to a 96-well plate, then added 40 μL of 1 × kinase buffer (50 mM HEPES, pH 7.5) to each well, and mixed the mixture in the 96-well plate on a shaker for 10 min. Next, added 25 μL of ADP-Glo™ reagent to the above wells, mixed and incubated for another 40 min. Distributed 10 μL kinase detection reagent to the reaction and incubated for 30 min. Finally, the full-wavelength microplate reader was used to record the OD value.
# 4.3. Statistical analysis
# Computerized Prism 5 program was used to statistically analyzed data using one-way ANOVA test followed by Tukey’s as post ANOVA for multiple comparison at P ≤.05. Data were presented as […]
# [10] = molecular target: T2, EGFR (Homo sapiens, UniProt P00533); test: EGFR-TK inhibitory assay
# T2 sequence (P00533 669-1210): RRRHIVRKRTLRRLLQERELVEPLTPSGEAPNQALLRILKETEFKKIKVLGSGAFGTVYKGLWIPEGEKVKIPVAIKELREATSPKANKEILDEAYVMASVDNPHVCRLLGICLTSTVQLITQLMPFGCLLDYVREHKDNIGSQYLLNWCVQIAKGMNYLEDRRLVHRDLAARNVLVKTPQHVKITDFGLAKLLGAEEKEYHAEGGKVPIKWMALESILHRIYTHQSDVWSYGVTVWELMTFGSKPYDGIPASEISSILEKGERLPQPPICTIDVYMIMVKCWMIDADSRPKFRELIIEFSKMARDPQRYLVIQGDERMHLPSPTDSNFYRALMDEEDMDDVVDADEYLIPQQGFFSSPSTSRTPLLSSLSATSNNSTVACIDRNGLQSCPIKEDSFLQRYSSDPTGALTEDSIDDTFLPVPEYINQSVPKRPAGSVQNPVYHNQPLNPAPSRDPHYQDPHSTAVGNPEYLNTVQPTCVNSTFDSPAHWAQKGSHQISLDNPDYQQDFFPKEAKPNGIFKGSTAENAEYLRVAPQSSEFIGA
# [11] = tested on: four human cancer cell lines; parameters: method as in doi:10.1016/j.molstruc.2023.136953; details: earlier study of the authors; read-out: GI50 against the four cancer cell lines; cited from earlier work
# [12] = molecular target: T2, EGFR; parameters: 645–1186; His6 (N); made in house; host or cells: Sf-9 insect cells (baculovirus; pBlueBacHis2B / pFASTBacHTc); method as in doi:10.1016/j.molstruc.2023.136953; details: earlier study of the authors; cited from earlier work
# [13] = molecular target: T1, HER-2; parameters: method as in PMID 39434991; details: earlier study of the authors; read-out: HER-2 inhibitory IC50; cited from earlier work
# [14] = molecular target: T2, EGFR; parameters: 645–1186; His6 (N); made in house; host or cells: Sf-9 insect cells (baculovirus; pBlueBacHis2B / pFASTBacHTc); method as in PMID 39434991; details: earlier study of the authors; read-out: EGFR inhibitory IC50; cited from earlier work
# [15] = tested on: BRAF^V600E; parameters: method as in PMID 33279248; details: earlier study of the authors; cited from earlier work
# [16] = tested on: BRAF^V600E; parameters: method as in doi:10.1016/j.molstruc.2023.136953; details: earlier study of the authors; cited from earlier work
Structure (SMILES),"viability at 4 days, 50 µM [1]",IC50 [2],IC50 [3],"Fold reduced potency compared to erlotinib, BRAF^V600E [4]",IC50 [5],IC50 [6],IC50 [7],GI50 ([8]; Homo sapiens),IC50 [9],IC50 [10],GI50 [11],other results
"COc1ccc(C2C(C#N)=C(N)Oc3c2c(=O)[nH]c2ccc(OC)cc32)cc1 (stereo not drawn) [Compound 5h, 2-Amino-9-methoxyl-4-(4-methoxylphenyl)-5-oxo-5,6-dihydro-4H-pyrano[3,2-c]quinoline-3-carbonitrile]",91%,29 ± 2 nM,67 ± 3 nM,1.1 fold,26 ± 2 nM,28 ± 2 nM,29 ± 2 nM,26 nM,23 ± 1 nM,75 ± 4 nM,–,"GI50 [8]: 28 nM; Times more effective than erlotinib (GI50) ([8]; ratio of GI50 versus erlotinib, four cancer cell lines): 1.25 fold"
"COc1ccc(C2C(C#N)=C(N)Oc3c2c(=O)n(C)c2ccccc32)cc1 (stereo not drawn) [Compound 5i, 2-Amino-6-methyl-4-(4-methoxylphenyl)-5-oxo-5,6-dihydro-4H-pyrano[3,2-c]quinoline-3-carbonitrile]",90%,31 ± 2 nM,74 ± 4 nM,1.3 fold,27 ± 2 nM,30 ± 2 nM,33 ± 2 nM,30 nM,31 ± 2 nM,78 ± 4 nM,–,–
CC(=NO)c1ccc(NC(=O)c2cc(-c3ccc(S(C)(=O)=O)cc3)nc3ccccc23)cc1 [Compound II],–,–,–,–,–,–,–,–,–,–,1200 nM,IC50 [12]: 105 ± 10 nM
O=c1[nH]c2ccccc2c(O)c1/C=N/c1ccc(NS(=O)(=O)c2ncccn2)cc1 [Compound I],–,–,–,–,–,–,–,–,–,–,–,IC50 [13]: 31 nM; IC50 [14]: 71 nM
"C#Cc1cccc(Nc2ncnc3cc(OCCOC)c(OCCOC)cc23)c1 [Erlotinib, reference compound]",–,30 ± 3 nM,–,–,40 ± 3 nM,30 ± 3 nM,30 ± 3 nM,–,–,–,–,IC50 [15]: […]; IC50 [16]: […]
COc1cccc2c1C(=O)c1c(O)c3c(c(O)c1C2=O)C[C@@](O)(C(=O)CO)C[C@@H]3O[C@H]1C[C@H](N)[C@H](O)[C@H](C)O1 [doxorubicin],–,–,–,–,–,–,–,–,–,–,1400 nM,–
